pIC50: −log10 of the molar value. Where a name gives a salt, the structure may show the parent alone. Read-outs that look alike come from different tables or passages of the source.

The values below come from US20080275029A1, “Compounds for Treating Protein-Kinase Mediated Disorders” (ASTEX THERAPEUTICS LIMITED, priority 2004, published 2008).

The target of this experiment is T1, protein kinase B (PKB), fusion protein PKB-PIF (Homo sapiens, UniProt P31751).
T1 construct: made in house
Briefly: Measurement of PKB kinase inhibitory activity (IC50). The experiment is classed as biochemical. The protocol: The inhibition of protein kinase B (PKB) activity by compounds can be determined essentially as described by Andjelkovic et al. (Mol. Cell. Biol. 19, 5061-5072 (1999)) but using a fusion protein described as PKB-PIF and described in full by Yang et al (Nature Structural Biology 9, 940-944 (2002)). […] A final concentration of 0.6 nM enzyme is used in a buffer that includes 20 mM MOPS pH 7.2, 30 μM ATP/γ^33P-ATP and 25 μM substrate. Compounds are added in DMSO solution to a final DMSO concentration of 2.5%. The reaction is allowed to proceed for 20 minutes before addition of excess orthophosphoric acid to quench activity. The reaction mixture is transferred to a phosphocellulose filter plate where the peptide binds and the unused ATP is washed away. After washing, scintillant is added and the incorporated activity measured by scintillation counting.
The % inhibition of the PKB activity is calculated and plotted in order to determine the concentration of test compound required to inhibit 50% of the PKB activity (IC50).

The mark [1] stands for this setting: PKB-PIF activated with PDK1, 30 μM ATP, AKTide-2T substrate, 20 minutes, read-out: IC50 (concentration required to inhibit 50% of the PKB activity).

T1 sequence (P31751 with tags, fused parts or gaps limits assumed): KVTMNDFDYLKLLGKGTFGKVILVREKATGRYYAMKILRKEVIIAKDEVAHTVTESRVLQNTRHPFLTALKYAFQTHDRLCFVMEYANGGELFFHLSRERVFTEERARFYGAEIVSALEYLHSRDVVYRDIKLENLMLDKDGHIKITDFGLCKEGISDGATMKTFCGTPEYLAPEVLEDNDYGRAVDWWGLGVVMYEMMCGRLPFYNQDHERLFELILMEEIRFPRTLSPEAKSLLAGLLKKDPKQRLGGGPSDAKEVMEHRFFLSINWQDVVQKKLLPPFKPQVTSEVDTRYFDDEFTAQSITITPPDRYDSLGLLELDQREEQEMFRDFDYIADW

Take `NCCC(C(=O)Nc1ccc2c(=O)[nH]cnc2c1)c1ccc(Cl)c(Cl)c1` (stereo not shown) [Example 1, 4-Amino-2-(3,4-dichloro-phenyl)-N-(4-oxo-3,4-dihydro-quinazolin-7-yl)-butyramide]: the pIC50 under setting [1] was above 5.00.
Take `CNCCC(C(=O)Nc1ccc2c(=O)[nH]cnc2c1)c1ccc(Cl)cc1` (stereo not shown) [Example 2, 2-(4-Chloro-phenyl)-4-methylamino-N-(4-oxo-3,4-dihydro-quinazolin-7-yl)-butyramide]: under setting [1], the pIC50 was above 5.00.
Take `NCCC(NC(=O)c1ccc2c(=O)[nH]cnc2c1)c1ccc(Cl)cc1` (stereo not shown) [Example 3, 4-Oxo-3,4-dihydro-quinazoline-7-carboxylic acid[3-amino-1-(4-chloro-phenyl-propyl]-amide hydrochloride]: the pIC50 under setting [1] was above 5.00.
Still for that read-out and setting: in the case of `O=C(Nc1ccc2c(=O)[nH]cnc2c1)C1(c2ccccc2)CCNCC1` [Example 4, 4-Phenyl-piperidine-4-carboxylic acid (4-oxo-3,4-dihydro-quinazolin-7-yl)-amide] it was above 5.00; in that of `O=C(NCc1ccc(Cl)cc1)Nc1ccc2c(=O)[nH]cnc2c1` [Example 5, 1-(4-Chloro-benzyl)-3-(4-oxo-3,4-dihydro-quinazolin-7-yl)-urea], above 5.00.
In the case of `O=C(NCc1ccc(F)cc1)Nc1ccc2c(=O)[nH]cnc2c1` [Example 6, 1-(4-Fluoro-benzyl)-3-(4-oxo-3,4-dihydro-quinazolin-7-yl)-urea], under setting [1], the pIC50 is above 5.00.
As to `O=c1[nH]cnc2cc(OCC3(c4ccccc4)CCNCC3)ccc12` [Example 7, 7-(4-Phenyl-piperidin-4-ylmethoxy)-3H-quinazolin-4-one], under setting [1], the pIC50 was above 5.00.
Same read-out and setting: in the case of `O=C(NCc1ccccc1)Nc1ccc2c(=O)[nH]cnc2c1` [Example 8, 1-Benzyl-3-(4-oxo-3,4-dihydro-quinazolin-7-yl)-urea] it was above 5.00.
Turning to `NCCCOc1ccc2c(=O)[nH]cnc2c1` [Example 9, 7-(3-Amino-propoxy)-3H-quinazolin-4-one], the pIC50 is above 5.00.
As for `NCCCc1ccc2c(=O)[nH]cnc2c1` [Example 14, 7-(3-Amino-propyl)-3H-quinazolin-4-one], under setting [1], the pIC50 is above 5.00.
With `N[C@H]1CC[C@H](Nc2ccc3c(=O)[nH]cnc3c2)CC1` [Example 15, 7-(trans-4-Amino-cyclohexylamino)-3H-quinazolin-4-one], the pIC50 under setting [1] is above 5.00.
With `O=c1[nH]cnc2cc(NC3CCNC3)ccc12` (stereo not shown) [Example 16, 7-(Pyrrolidin-3-ylamino)-3H-quinazolin-4-one], the pIC50 is above 5.00.
`NC1CCN(c2ccc3c(=O)[nH]cnc3c2)CC1` [Example 17, 7-(4-Amino-piperidin-1-yl)-3H-quinazolin-4-one]: the pIC50 under setting [1] was above 5.00.
Turning to `O=c1[nH]cnc2cc(N3CCNCC3)ccc12` [Example 18, 7-piperazin-1-yl-3H-quinazolin-4-one], the pIC50 was above 5.00.
As to `O=c1[nH]cnc2cc(N3CCCNCC3)ccc12` [Example 19, 7-[1,4]Diazepan-1-yl-3H-quinazolin-4-one], under setting [1], the pIC50 is above 5.00.
Consider `O=c1[nH]cnc2cc(NC3CCCNC3)ccc12` (stereo not shown) [Example 20, 7-(Piperidin-3-ylamino)-3H-quinazolin-4-one], for which the pIC50 under setting [1] is above 5.00.
On the same count and under the same terms, the result for `N[C@H]1CC[C@H](Nc2ccc3c(=O)[nH]c(=O)[nH]c3c2)CC1` [Example 21, 7-(4-Amino-cyclohexylamino)-1H-quinazoline-2,4-dione] reads above 5.00; that for `CN1CCCN(c2ccc3c(=O)[nH]cnc3c2)CC1` [Example 22, 7-(4-Methyl-[1,4]diazepan-1-yl)-3H-quinazolin-4-one], above 5.00.
Take `CN1CCN(C2CCN(c3ccc4c(=O)[nH]cnc4c3)CC2)CC1` [Example 23, 7-[4-(4-Methyl-piperazin-1-yl)-piperidin-1-yl]-3H-quinazolin-4-one]: under setting [1], the pIC50 was above 4.30.
As to `O=c1[nH]cnc2cc(N3CCNC(c4ccccc4)C3)ccc12` (stereo not shown) [Example 25], the pIC50 under setting [1] was above 4.30.
Still for that read-out and setting: the result for `CN1CCN(c2ccc3c(=O)[nH]cnc3c2)CC1` [Example 26, 7-(4-Methyl-piperazin-1-yl)-3H-quinazolin-4-one] reads above 4.30.
In the case of `NCC1(c2ccc(Cl)cc2)CCN(c2ccc3c(=O)[nH]cnc3c2)CC1` [Example 27, 7-[4-Aminomethyl-4-(4-chloro-phenyl)-piperidin-1-yl]-3H-quinazolin-4-one], the pIC50 under setting [1] was above 5.00.
Turning to `NCC[C@H](C(=O)Nc1ccc2c(=O)[nH]cnc2c1)c1ccc(Cl)c(Cl)c1` [Example 28], the pIC50 under setting [1] is above 5.00.
As for `NCC[C@@H](C(=O)Nc1ccc2c(=O)[nH]cnc2c1)c1ccc(Cl)c(Cl)c1` [Example 29, (R)-4-Amino-2-(3,4-dichloro-phenyl)-N-(4-oxo-3,4-dihydro-quinazolin-7-yl)butyramide], under setting [1], the pIC50 is above 5.00.
In the case of `O=C(Nc1ccc2c(=O)[nH]cnc2c1)C1(c2ccc(Cl)cc2)CCNCC1` [Example 30, 4-(4-Chloro-phenyl)-piperidine-4-carboxylic acid (4-oxo-3,4-dihydro-quinazolin-7-yl)-amide], under setting [1], the pIC50 is above 5.00.
The same measure, in the same setting: in the case of `N[C@H]1CC[C@H](Oc2ccc3c(=O)[nH]cnc3c2)CC1` [Example 31, 7-(4-Amino-cyclohexyloxy)-3H-quinazolin-4-one] it was above 5.00.
For `O=c1[nH]cnc2cc(NCC3(c4ccc(Cl)cc4)CCNCC3)ccc12` [Example 32, 7-{[4-(4-Chloro-phenyl)-piperidin-4-ylmethyl]-amino}-3H-quinazolin-4-one], under setting [1], the pIC50 was above 5.00.
On the same count and under the same terms, in the case of `O=c1[nH]cnc2cc(OCC3(c4ccc(Cl)cc4)CCNCC3)ccc12` [Example 33, 7-[4-(4-Chloro-phenyl)-piperidin-4-ylmethoxy]-3H-quinazolin-4-one] it was above 5.00; in that of `O=c1[nH]cnc2cc(N3CCC(CO)(c4ccc(Cl)cc4)CC3)ccc12` [Example 34, 7-[4-(4-Chloro-phenyl)-4-hydroxymethyl-piperidin-1-yl]-3H-quinazolin-4-one], above 5.00; in that of `Cc1nc2cc(N3CCC(CN)(c4ccc(Cl)cc4)CC3)ccc2c(=O)[nH]1` [Example 35, 7-[4-Aminomethyl-4-(4-chloro-phenyl)-piperidin-1-yl]-2-methyl-3H-quinazolin-4-one], above 5.00.
As for `NC(c1ccc(Cl)cc1)C1CCN(c2ccc3c(=O)[nH]cnc3c2)CC1` (stereo not shown) [Example 36, 7-{4-[Amino-(4-chloro-phenyl)-methyl]-piperidin-1-yl}-3H-quinazolin-4-one], the pIC50 under setting [1] was above 5.00.
On the same count and under the same terms, the result for `Cn1c(=O)[nH]c(=O)c2ccc(OCC3(c4ccc(Cl)cc4)CCNCC3)cc21` [Example 37, 7-[4-(4-Chloro-phenyl)-piperidin-4-ylmethoxy]-1-methyl-1H-quinazoline-2,4-dione] reads above 5.00.
Consider `NC1(Cc2ccc(Cl)cc2)CCN(c2ccc3c(=O)[nH]cnc3c2)CC1` [Example 38, 7-[4-Amino-4-(4-chloro-benzyl)-piperidin-1-yl]-3H-quinazolin-4-one], for which the pIC50 under setting [1] was above 5.00.
The same measure, in the same setting: the result for `O=c1[nH]cnc2cc(/C=C/C3(c4ccc(Cl)cc4)CCNCC3)ccc12` [Example 39, 7-{2-[4-(4-Chloro-phenyl)-piperidin-4-yl]-vinyl}-3H-quinazolin-4-one dihydrochloride] reads above 5.00.
With `NC1(c2ccc(Cl)cc2)CCN(c2ccc3c(=O)[nH]cnc3c2)CC1` [Example 40, 7-[4-Amino-4-(4-chloro-phenyl)-piperidin-1-yl]-3H-quinazolin-4-one], the pIC50 under setting [1] is above 5.00.
Turning to `NCC1(Cc2ccc(Cl)cc2)CCN(c2ccc3c(=O)[nH]cnc3c2)CC1` [Example 41, 7-[4-Aminomethyl-4-(4-chloro-benzyl)-piperidin-1-yl]-3H-quinazolin-4-one], the pIC50 under setting [1] was above 5.00.
As to `Cn1c(=O)[nH]c(=O)c2ccc(N3CCC(CN)(Cc4ccc(Cl)cc4)CC3)cc21` [Example 42, 7-[4-Aminomethyl-4-(4-chloro-benzyl)-piperidin-1-yl]-1-methyl-1H-quinazoline-2,4-dione], the pIC50 under setting [1] is above 5.00.
